Read-outs that look alike come from different tables or passages of the source.
Legend:
[1] = target: T1, (Homo sapiens, UniProt P08069); test: IGF1R kinase assay (LCCA), IGF 0P; format: biochemical
T1 construct: human IGF1R kinase domain residues M954-C1367; made in house; host or cells: baculovirus expression (insect cells)
Method in brief: (§1)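 Read-out is percent ATP remaining, detected by luciferase-luciferin luminescence after a 2 h ambient reaction. Reaction contained 4 nM IGF1R kinase domain (residues M954-C1367, baculovirus-made), 3 μM ATP (near KM), 4 μM poly EY, pH 7.5 with Mg2+/Mn2+. Ten inhibitor concentrations; IC50 by Hill-type curve fit.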

IGF 3P = target: T2, IGF 3P (Homo sapiens, UniProt P08069); test: IGF1R kinase assay (LCCA), IGF 3P; format: biochemical
T2 construct: human IGF1R kinase domain residues M954-C1367; made in house; host or cells: baculovirus expression (insect cells)
T2 sequence (P08069 954-1367): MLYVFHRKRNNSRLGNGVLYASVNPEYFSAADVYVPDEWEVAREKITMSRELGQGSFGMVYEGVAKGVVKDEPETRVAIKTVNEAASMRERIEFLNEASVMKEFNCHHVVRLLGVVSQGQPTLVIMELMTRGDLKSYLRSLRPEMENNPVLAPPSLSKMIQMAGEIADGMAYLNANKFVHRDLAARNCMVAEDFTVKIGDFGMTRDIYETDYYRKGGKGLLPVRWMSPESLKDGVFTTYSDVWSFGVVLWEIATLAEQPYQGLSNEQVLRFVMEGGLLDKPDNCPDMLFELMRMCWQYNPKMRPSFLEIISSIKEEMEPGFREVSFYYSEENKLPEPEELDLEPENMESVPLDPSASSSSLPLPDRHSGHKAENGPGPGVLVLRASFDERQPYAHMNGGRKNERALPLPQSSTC
Method in brief: as §1

T1 sequence (P08069 954-1367): as above

Row | Structure (SMILES) | IC50 ([1]; IGF1R kinase LCCA assay) [nM] | IC50 (IGF 3P; IGF1R kinase LCCA assay) [nM] | IC50 [1] [nM] | IC50 (IGF 3P) [nM]
1 | CN1CCC(Oc2cc(Nc3cc(C4CC4)[nH]n3)nc(NCc3cc(-c4ccccc4)no3)n2)C1 (stereo not drawn) [Example 515] | 50 to 500 | < 50 |  | 
2 | COc1ccccc1CNc1nc(C)cc(Nc2cc(C3CC3)[nH]n2)n1 [Example 207] | 500 to 5000 | 500 to 5000 |  | 
3 | Nc1ncnn1-c1nc(Nc2ccc(N3CCOCC3)cc2)ncc1Br [Example 285] | > 5000 | > 5000 |  | 
4 | CCN(CC)CCNC(=O)c1ccc(Nc2ncc(C)c(Nc3cc(C4CC4)n[nH]3)n2)cc1 [Example 167] | 500 to 5000 | 500 to 5000 |  | 
5 | Brc1cnc(NCc2cnn(-c3ccccc3)n2)nc1Nc1cc(C2CC2)n[nH]1 [Example 266] | 500 to 5000 | > 5000 |  | 
6 | Nc1ncnc2c1c(-c1cccc(Oc3ccccc3)c1)cn2C1CCCC1 [Example 354] | > 5000 | > 5000 |  | 
7 | CCN(CC)CCCNC(=O)c1cc(Nc2cc(C3CC3)[nH]n2)nc(NCc2cc(-c3ccccc3)no2)n1 [Example 529] | 50 to 500 | 50 to 500 |  | 
8 | Brc1cnc(Nc2ccc(N3CCNCC3)cc2)nc1Nc1cc(C2CC2)n[nH]1 [Example 255] | > 5000 | 500 to 5000 |  | 
9 | Brc1ccccc1Nc1ncc(Br)c(Nc2cc(C3CC3)n[nH]2)n1 [Example 83] | 50 to 500 | 50 to 500 |  | 
10 | Cc1cc(NCc2ccccc2)nc(NCc2cc(-c3ccccc3)no2)n1 [Example 298] | > 5000 | > 5000 |  | 
11 | Cc1cc(Nc2cc(C3CC3)n[nH]2)nc(Nc2ccc(CC#N)cc2)n1 [Example 125] | 50 to 500 | 50 to 500 |  | 
12 | CCN(CC)CCNC(=O)c1ccc(Nc2nccc(Nc3cc(C4CC4)n[nH]3)n2)cc1 [Example 184] | 500 to 5000 | 500 to 5000 |  | 
13 | Brc1cnc(Nc2ccc(-c3ccccc3)cc2)nc1Nc1cc(C2CC2)[nH]n1 [Example 322] | > 5000 | > 5000 |  | 
14 | FC(F)(F)c1cc(Nc2ncc(Br)c(Nc3cc(C4CC4)n[nH]3)n2)cc(C(F)(F)F)c1 [Example 304] | > 5000 | > 5000 |  | 
15 | Clc1cc(Br)ccc1Nc1ncc(Br)c(Nc2cc(C3CC3)[nH]n2)n1 [Example 143] | 500 to 5000 | 50 to 500 |  | 
16 | CCN(CC)CCCNC(=O)CCc1cccc(Nc2ncc(Br)c(Nc3cc(C4CC4)n[nH]3)n2)c1 [Example 107] | 500 to 5000 | 50 to 500 |  | 
17 | CN1CCN(C(=O)c2cccc(Nc3ncc(Br)c(Nc4cc(C5CC5)n[nH]4)n3)c2)CC1 [Example 128] | 500 to 5000 | 50 to 500 |  | 
18 | Cc1cc(Nc2cc(C3CC3)[nH]n2)nc(NCc2cc(-c3ccc(F)cc3F)no2)n1 [Example 622, N^4-(5-cyclopropyl-1H-pyrazol-3-yl)-N^2-{[3-(2,4-difluorophenyl)isoxazol-5-yl]methyl}-6-methylpyrimidine-2,4-diamine] |  |  | 50 to 500 | < 50
19 | Cc1cc(Nc2cc(C3CC3)n[nH]2)nc(Nc2ccc(CCC(=O)N(C)C)cc2)n1 [Example 111] | 500 to 5000 | 50 to 500 |  | 
20 | O=C(NCCN1CCOCC1)c1cc(Nc2cc(C3CC3)[nH]n2)nc(NCc2cc(-c3ccccc3)no2)n1 [Example 533] | 50 to 500 | 50 to 500 |  | 
21 | NC(=O)c1c[nH]nc1Nc1nc(Nc2ccccc2Cl)ncc1Br [Example 332] | > 5000 | > 5000 |  | 
22 | CC(=O)NCC#CCn1cc(-c2cccc(OCc3ccccc3)c2)c2c(N)ncnc21 [Example 355] | > 5000 | > 5000 |  | 
23 | Brc1cnc(Nc2ccc(OCc3ccccc3)cc2)nc1Nc1cc(C2CC2)n[nH]1 [Example 320] | > 5000 | > 5000 |  | 
24 | c1ccc(-c2cc(CNc3nc(NCCN4CCOCC4)cc(Nc4cc(C5CC5)[nH]n4)n3)on2)cc1 [Example 513] | 50 to 500 | < 50 |  | 
25 | COc1cc(Nc2nc(C)cc(Nc3cc(C4CC4)[nH]n3)n2)cc(OC)c1 [Example 261] | 500 to 5000 | > 5000 |  | 
26 | c1ccc(-c2cc(CNc3nc(Nc4cc(C5CC5)[nH]n4)cc(N4CCOCC4)n3)on2)nc1 [Example 612, N^4-(5-cyclopropyl-1H-pyrazol-3-yl)-6-morpholin-4-yl-N^2-[(3-pyridin-2-ylisoxazol-5-yl)methyl]pyrimidine-2,4-diamine] |  |  | 50 to 500 | < 50
27 | Clc1ccc(CCNc2ncc(Br)c(Nc3cc(C4CC4)n[nH]3)n2)cc1 [Example 230] | > 5000 | 500 to 5000 |  | 
